Measurements from US4689318A, “GRF analogs” (The Salk Institute for Biological Studies, priority 1985, dated 1987).
No end group written: not given here.

Test system: cells of rat pituitary glands
Test: in vitro GH release from cultured rat pituitary cells, side-by-side with synthetic hGRF(1-40)-OH standard, ir GH by radioimmunoassay
Format: cell-based
Conditions: equimolar concentrations; rat pituitary cell cultures; 4 hours incubation; immunoreactive GH in culture medium
Experimental: As an example of testing the effectiveness of the synthetic peptide of Example I to promote the release of growth hormone, in vitro assays are carried out using synthetic hGRF(1-40)-OH as a standard in side-by-side comparison with equimolar concentrations of the various other analogs and fragments synthesized. Cultures are used which include cells of rat pituitary glands removed four days previous to testing. Cultures which are considered optimal for the secretion of growth hormone are used for the comparative testing, in the general manner described in Vale et al. Endocrinology, 91, 562-572 (1972) and as more particularly described in Vale et al., Endocrinology, 112, 1553-1555 (1983). Incubation with the substance to be tested is carried out for 4 hours, and aliquots of the culture medium are removed and processed to measure their respective content of immunoreactive GH(ir GH) by a well-characterized radioimmunoassay.

Substance | potency to promote the release of growth hormone relative to the hpGRF(1-40)-OH standard
YADAIFSSAYRRLLAQLASRRLLQELLAR [Example II, [Ser^7,8,19, Ala^9,15,18,28, Arg^12,21, Leu^13,26,27]-hGRF(1-29)-OH] | equivalent to the hpGRF(1-40)-OH standard
YADAIFSSAYRRLLAQLASRRLLQELLAR-NH2 [Example I, [Ser^7,8,19, Ala^9,15,18,28, Arg^12,21, Leu^13,26,27]-hGRF(1-29)-NH2] | equivalent to the hpGRF(1-40)-OH standard
